Assays:
[1] = wn = mass fraction of the nth substance listed; conditions: 101 kPa, Liquid, w2 = 0.1583; for mass density: Vibrating tube method; for viscosity: Cone and plate viscometry; for thermal conductivity: transient hot wire; for electrical conductivity: Direct current cell with electrodes
[2] = molar heat capacity at constant pressure; wn = mass fraction of the nth substance listed; conditions: 101 kPa, Liquid, Small sample (50 mg) DSC, w2 = 0.1583

CCCCCC(=O)[O-].CCCCCCCCCCCCCC[P+](CCCCCC)(CCCCCC)CCCCCC [trihexyl(tetradecyl)phosphonium hexanoate] + O
Conditions	electrical conductivity [S/m]	mass density [kg/m3]	molar heat capacity at constant pressure [J/K/mol]	thermal conductivity [W/m/K]	viscosity [mPa·s]
[1], 298.15 K	–	905	–	–	–
[1], 298.2 K	–	–	–	–	79.44
[1], 298.75 K	–	–	–	0.1871	–
[1], 299.4 K	0.0753	–	–	–	–
[1], 303.15 K	–	901.7	–	–	–
[1], 303.2 K	–	–	–	–	63.83
[1], 304 K	0.0926	–	–	–	–
[1], 307.76 K	–	–	–	0.1858	–
[1], 308.1 K	0.11	–	–	–	–
[1], 308.2 K	–	–	–	–	51.41
[1], 313.15 K	–	894.6	–	–	–
[1], 313.2 K	–	–	–	–	41.45
[1], 313.9 K	0.132	–	–	–	–
[1], 317.72 K	–	–	–	0.1838	–
[1], 318.2 K	–	–	–	–	34.56
[1], 318.4 K	0.16	–	–	–	–
[1], 323.15 K	–	888	–	–	–
[1], 323.2 K	–	–	–	–	29.8
[1], 323.6 K	0.184	–	–	–	–
[1], 327.36 K	–	–	–	0.1824	–
[1], 328 K	0.217	–	–	–	–
[1], 328.2 K	–	–	–	–	24.98
[1], 333.15 K	–	880.5	–	–	–
[1], 333.2 K	–	–	–	–	20.36
[1], 333.6 K	0.252	–	–	–	–
[1], 337.88 K	–	–	–	0.1814	–
[1], 338.2 K	–	–	–	–	17.31
[1], 338.9 K	0.297	–	–	–	–
[1], 343 K	0.331	–	–	–	–
[1], 343.15 K	–	874.2	–	–	–
[1], 343.2 K	–	–	–	–	15.85
[1], 347.85 K	–	–	–	0.1791	–
[1], 348.2 K	–	–	–	–	13.19
[1], 349.3 K	0.391	–	–	–	–
[1], 353.15 K	–	867.8	–	–	–
[1], 353.2 K	–	–	–	–	11.18
[1], 358.05 K	–	–	–	0.1774	–
[1], 358.2 K	–	–	–	–	10.4
[1], 363.15 K	–	861	–	–	–
[1], 363.2 K	–	–	–	–	9.406
[1], 368.2 K	–	–	–	–	8.038
[2], 298.15 K	–	–	318.37	–	–
[2], 303.15 K	–	–	320.43	–	–
[2], 308.15 K	–	–	323.18	–	–
[2], 313.15 K	–	–	325.93	–	–
[2], 318.15 K	–	–	328.97	–	–
[2], 323.15 K	–	–	332.11	–	–
[2], 328.15 K	–	–	335.25	–	–
[2], 333.15 K	–	–	339.17	–	–
[2], 338.15 K	–	–	343.3	–	–
[2], 343.15 K	–	–	347.22	–	–
[2], 348.15 K	–	–	351.44	–	–
[2], 353.15 K	–	–	353.31	–	–
[2], 358.15 K	–	–	359	–	–
[2], 363.15 K	–	–	365.08	–	–

— the NIST ThermoML archive (doi:10.1016/j.jct.2018.02.013)
